PubChem BioAssay (NCI)
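Where inhibition never reached the appropriate level, the endpoint shown equals the highest concentration tested. Otherwise, values were interpolated linearly from a five-concentration, 48-hour dose response in 96-well plates. Definition used: TGI = concentration required for complete inhibition of growth.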 Where a SMILES comes first, the peptide text is derived from it. The star is where a group is joined. Fmoc = O=C(OCC1c2ccccc2-c2ccccc21)*; Boc = CC(C)(C)OC(=O)*

Assays:
Test in all cases: inhibition of tumour cell growth, NCI panel, 48 h
786-0 renal = tested on: 786-0 renal
A549 NSCLC = tested on: A549 NSCLC
ACHN renal = tested on: ACHN renal
DU-145 prostate = tested on: DU-145 prostate
HCT-15 colon = tested on: HCT-15 colon
HOP-92 NSCLC = tested on: HOP-92 NSCLC
KM12 colon = tested on: KM12 colon
MDA-MB-231 breast = tested on: MDA-MB-231 breast
MDA-MB-435 = tested on: MDA-MB-435
MOLT-4 leukemia = tested on: MOLT-4 leukemia
NCI-H226 lung = tested on: NCI-H226 lung
OVCAR-3 ovarian = tested on: OVCAR-3 ovarian
OVCAR-4 ovarian = tested on: OVCAR-4 ovarian
RXF 393 renal = tested on: RXF 393 renal
SF-295 CNS = tested on: SF-295 CNS
UACC-257 melanoma = tested on: UACC-257 melanoma

| Compound | TGI (786-0 renal) [µM] | TGI (A549 NSCLC) [µM] | TGI (ACHN renal) [µM] | TGI (DU-145 prostate) [µM] | TGI (HCT-15 colon) [µM] | TGI (HOP-92 NSCLC) [µM] | TGI (KM12 colon) [µM] | TGI (MDA-MB-231 breast) [µM] | TGI (MDA-MB-435) [µM] | TGI (MOLT-4 leukemia) [µM] | TGI (NCI-H226 lung) [µM] | TGI (OVCAR-3 ovarian) [µM] | TGI (OVCAR-4 ovarian) [µM] | TGI (RXF 393 renal) [µM] | TGI (SF-295 CNS) [µM] | TGI (UACC-257 melanoma) [µM] |
| --- | --- | --- | --- | --- | --- | --- | --- | --- | --- | --- | --- | --- | --- | --- | --- | --- |
| CC(C)(C)c1cc2c(O)c(c1)Cc1cc(C(C)(C)C)cc(c1O)Cc1cc(C(C)(C)C)cc(c1O)Cc1cc(C(C)(C)C)cc(c1O)Cc1cc(C(C)(C)C)cc(c1O)Cc1cc(C(C)(C)C)cc(c1O)Cc1cc(C(C)(C)C)cc(c1O)Cc1cc(C(C)(C)C)cc(c1O)C2 | > 50 | > 50 | > 50 | > 50 | > 50 | > 50 | > 50 | > 50 | > 50 | > 50 | > 50 | > 50 | > 50 | > 50 | > 50 | > 50 |
| c1ccc2c(c1)NC1(N3CCCCC3)CCCCC21 (stereo not drawn) | > 100 | > 100 | > 100 | > 100 | > 100 | 84 | > 100 | > 100 | > 100 | 85.1 | > 100 | > 100 | > 100 | 80.2 | > 100 | > 100 |
| CSC12c3cc(C)n(-c4ccccc4)c3CC(C)(C)CN1C(=O)C2Oc1ccccc1 (stereo not drawn) | > 100 | 86.4 | > 100 | > 100 | > 100 | > 100 | > 100 | > 100 | > 100 | > 100 | > 100 | > 100 | > 100 | > 100 | > 100 | > 100 |
| CC(=O)C1=C(C)N(c2ccc(C)cc2)C2(O)C3=C(C(=O)c4ccccc4C3=O)C(O)=CC12Cl (stereo not drawn) | > 100 | > 100 | > 100 | > 100 | > 100 | > 100 | 33.8 | > 100 | 14.3 | > 100 | > 100 | 45 | > 100 | 50.8 | 37.3 | 55.6 |
| COC(=O)[C@H](CC(C)C)Nc1c(O)c2c(c(O)c1Cl)C(=O)C=CC2=O | > 10 | > 10 | > 10 | > 10 | > 10 | > 10 | > 10 | > 10 | > 10 | > 10 | > 10 | 6 | > 10 | > 10 | > 10 | > 10 |
| O=c1[nH]c(=O)n(C2OC(CO)C(O)C2O)cc1Oc1ccccc1 (stereo not drawn) | > 100 | > 100 | > 100 | > 100 | > 100 | > 100 | > 100 | > 100 | > 100 | > 100 | > 100 | > 100 | > 100 | > 100 | > 100 | > 100 |
| Cc1cc(S(=O)(=O)/N=C(/[N-]S(=O)(=O)c2ccc(Cl)cc2)[n+]2ccc(N(C)C)cc2)c(SCC(=O)O)cc1Cl | > 100 | > 100 | > 100 | > 100 | > 100 | 54.3 | > 100 | > 100 | > 100 | > 100 | > 100 | > 100 | > 100 | > 100 | > 100 | > 100 |
| CCOC1Oc2ccccc2-c2nc(SC)ncc21 (stereo not drawn) | > 100 | > 100 | > 100 | > 100 | > 100 | > 100 | > 100 | > 100 | > 100 | > 100 | > 100 | > 100 | > 100 | > 100 | > 100 | > 100 |
| COc1ccccc1/C=C1\NC(=S)N(/C=C2\C(=O)Oc3ccccc3C2=O)C1=O | > 100 | > 100 | > 100 | > 100 | > 100 | 53.3 | > 100 | > 100 | > 100 | 72.6 | > 100 | > 100 | > 100 | > 100 | > 100 | > 100 |
| O=C1CC(=O)NC(=NNS(=O)(=O)c2ccccc2)N1 | > 100 | > 100 | > 100 | > 100 | > 100 | > 100 | > 100 | > 100 | > 100 | > 100 | > 100 | > 100 | > 100 | > 100 | > 100 | > 100 |
| CCOC(=O)C(=O)/C(=C/N1C(=O)CC(=O)NC1=S)C(=O)OCC | > 100 | > 100 | > 100 | > 100 | > 100 | > 92.9 | > 100 | > 100 | > 100 | > 100 | > 100 | > 60.2 | > 100 | > 100 | > 100 | > 100 |
| O=C1C=C(OCCCCl)C(=O)c2c(O)ccc(O)c21 | 2.94 | 0.645 | 2.96 | 0.863 | 1.58 | 2.89 | 3.37 | 3.39 | 0.364 | 6.06 | 3.7 | 1.38 | 1.71 | 3.09 | 3.2 | 0.358 |
| CC(C)(C)OC(=O)NCCCCC(NC(=O)C(Cc1c[nH]c2ccccc12)NC(=O)OCC1c2ccccc2-c2ccccc21)C(=O)N1CCCC1C(=O)NCC(N)=O (stereo not drawn) (Fmoc-WK(Boc)PG-NH2; configuration not given here) | > 100 | > 100 | > 100 | > 100 | > 100 | > 100 | > 100 | > 100 | > 100 | > 100 | > 100 | > 100 | > 100 | > 100 | > 100 | > 100 |
| COC(=O)[C@H](Cc1ccc(OC(C)(C)C)cc1)N[C@H](C)C(=O)N[C@@H](Cc1ccccc1)C(=O)OCc1ccccc1 | > 100 | > 100 | > 100 | > 100 | > 100 | > 100 | > 100 | > 100 | > 100 | 50 | > 100 | > 100 | > 100 | > 100 | > 100 | > 100 |
| O=C(CSc1nc2ccc(I)cc2c(=O)n1Cc1ccccc1)NNC(=O)c1ccccc1 | 21 | 32.6 | 75.4 | 45.9 | > 100 | 28.2 | > 100 | 28.2 | > 100 | 23.5 | 15.5 | 90.4 | 57.4 | 17.5 | 30.7 | 57.2 |
| O=C1C=CC(=O)c2c1ccc1c3ccccc3n(Cc3cccc([N+](=O)[O-])c3)c21 | > 61.4 | > 100 | 38 | > 100 | 50.2 | 43.7 | > 100 | 61.1 | > 65.2 | 37.7 | > 100 | 34.6 | > 63.8 | 39.2 | > 100 | 60.1 |
| CCOc1cc2oc(C)cc(=O)c2c(OC)c1C=Nc1ccc(Cn2c(C)nc3ccccc32)cc1 | > 100 | > 100 | > 100 | > 100 | > 100 | > 100 | > 100 | > 100 | > 100 | > 100 | > 100 | > 100 | > 100 | > 100 | > 100 | > 100 |
| CCN(CC)Cc1c(/C=C\c2cc(OC)c(OC)c(OC)c2)ccc(OC)c1O | 78.9 | > 100 | > 100 | 39.7 | 34.8 | > 100 | 27.1 | > 100 | 0.826 | > 100 | 27.3 | 6.49 | > 75.5 | 9.35 | 32.1 | > 100 |
